Measurements reported in US11420970B1 (NOVARTIS AG, priority 2019, dated 2022).

What was measured:
[1] = target: NSD2 [1-1365] (Homo sapiens (Human), UniProt O96028); assay: LC-MS/MS-based NSD2 enzymatic assay (SAH production); type: biochemical; conditions: NSD2 biochemical activity, class symbols; read-out: NSD2 IC50
Outline: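 Full-length NSD2 [1-1365] (8 nM final) with 1 μM SAM and 400 nM mouse-liver nucleosome in Tris pH 8.0 buffer; inhibitor preincubated 20 min with enzyme/SAM before nucleosome addition. Reaction 90 min at room temperature, TFA-quenched; SAH quantified by LC-MS/MS against d4-SAH internal standard and SAH standard curve.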

[2] = system: cellular H3K36me2 level in multiple myeloma cell line KMS11 (t(4;14)+); assay: H3K36me2 cellular FRET assay in KMS11-Par line; type: cell-based; conditions: Homo sapiens
[3] = system: cellular H3K36me2 level in thyroid carcinoma cell line CGTH-W-1 (NSD2 E1099K); assay: H3K36me2 cellular ELISA assay in CGTH-W-1 line; type: cell-based; conditions: Homo sapiens, CGTH-W-1, 72 h, read-out: H3K36me2 ELISA in CGTH-W-1
Outline: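 CGTH-W-1 thyroid carcinoma cells (NSD2 E1099K gain-of-function) exposed to compound for 72 hours. Histone-bound plates probed for H3K36me2 and total H3 by chemiluminescent ELISA. Viability checked on a parallel plate with CellTiter-Glo.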

[4] = system: cellular H3K36me2 level in multiple myeloma cell line KMS11 (t(4;14)+); assay: H3K36me2 cellular ELISA assay in KMS11-Par line; type: cell-based; conditions: Homo sapiens, read-out: H3K36me2 ELISA in KMS11-Par
Outline: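 KMS11 cells were seeded a day ahead at 1,250 per well in Opti-MEM with B-27/N2, then treated with compound for 72 h. Histones were acid-extracted with 0.4M HCl, and H3K36me2 and total H3 were read by chemiluminescent ELISA. Viability was checked with CellTiter-Glo on a parallel plate in maintenance media.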

[5] = KMS-11, KMS11-Par line, cellular H3K36me2 level, FRET, read-out: H3K36me2 FRET in KMS11-Par
[6] = KMS-11, KMS11-Par line (t(4;14)+), 72 hours treatment, ELISA

Chain of NSD2 [1-1365] (O96028 whole entry): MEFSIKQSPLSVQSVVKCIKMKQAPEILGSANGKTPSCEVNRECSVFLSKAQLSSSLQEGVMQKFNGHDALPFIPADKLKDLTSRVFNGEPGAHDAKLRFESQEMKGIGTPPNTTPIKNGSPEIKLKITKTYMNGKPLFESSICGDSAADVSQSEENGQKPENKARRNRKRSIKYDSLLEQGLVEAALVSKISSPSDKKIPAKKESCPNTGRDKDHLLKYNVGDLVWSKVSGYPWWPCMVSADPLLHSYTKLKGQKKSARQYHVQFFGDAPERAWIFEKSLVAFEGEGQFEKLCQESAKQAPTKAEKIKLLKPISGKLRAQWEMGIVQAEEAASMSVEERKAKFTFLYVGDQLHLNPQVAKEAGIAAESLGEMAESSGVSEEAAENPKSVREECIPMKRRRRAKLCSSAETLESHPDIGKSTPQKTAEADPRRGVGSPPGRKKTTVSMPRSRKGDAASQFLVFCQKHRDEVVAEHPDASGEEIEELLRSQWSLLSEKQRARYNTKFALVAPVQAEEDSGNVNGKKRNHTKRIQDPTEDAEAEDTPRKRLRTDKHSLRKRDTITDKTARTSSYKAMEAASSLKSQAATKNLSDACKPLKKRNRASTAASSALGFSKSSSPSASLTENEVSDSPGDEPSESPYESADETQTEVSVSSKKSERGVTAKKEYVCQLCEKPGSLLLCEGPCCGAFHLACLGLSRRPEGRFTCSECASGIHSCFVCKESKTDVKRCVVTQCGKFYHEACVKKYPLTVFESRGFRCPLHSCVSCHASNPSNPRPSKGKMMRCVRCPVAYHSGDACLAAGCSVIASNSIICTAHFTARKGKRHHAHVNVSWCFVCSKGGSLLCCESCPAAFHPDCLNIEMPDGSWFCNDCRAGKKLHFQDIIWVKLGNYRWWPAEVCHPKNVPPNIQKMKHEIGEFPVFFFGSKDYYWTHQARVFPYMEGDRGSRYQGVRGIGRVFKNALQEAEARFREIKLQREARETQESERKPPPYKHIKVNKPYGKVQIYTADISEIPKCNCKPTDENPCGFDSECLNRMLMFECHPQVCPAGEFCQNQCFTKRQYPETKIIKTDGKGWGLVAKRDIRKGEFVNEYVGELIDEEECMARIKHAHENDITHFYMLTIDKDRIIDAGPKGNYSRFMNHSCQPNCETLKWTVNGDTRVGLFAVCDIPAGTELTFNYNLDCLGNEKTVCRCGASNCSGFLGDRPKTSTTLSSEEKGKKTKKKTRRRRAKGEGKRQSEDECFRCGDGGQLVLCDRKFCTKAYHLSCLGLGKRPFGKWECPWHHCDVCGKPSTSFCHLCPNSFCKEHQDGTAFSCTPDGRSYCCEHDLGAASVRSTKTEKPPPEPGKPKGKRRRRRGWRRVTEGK

COc1ccc(-c2cc(Cn3cnc4c(N)ncnc43)c(N3CCC[C@](N)([C@H](C)OC)C3)cn2)cc1F [Example 93, 9-((5-((R)-3-amino-3-((S)-1-methoxyethyl)piperidin-1-yl)-2-(3-fluoro-4-methoxyphenyl)pyridin-4-yl)methyl)-9H-purin-6-amine]
IC50 [1]: 10 to 1000 nM | IC50 [2, 5]: 1390 nM | IC50 [3]: 3210 nM | IC50 [4, 6]: 3970 nM

COc1ccc(-c2cc(Cn3cnc4c(N)ncnc43)c(N3CCC[C@](N)(COC4CCC4)C3)cn2)cc1F [Example 32, (R)-9-((5-(3-amino-3-(cyclobutoxymethyl)piperidin-1-yl)-2-(3-fluoro-4-methoxyphenyl)pyridin-4-yl)methyl)-9H-purin-6-amine]
IC50 [1]: 1 to 10 nM | IC50 [2, 5]: 270 nM | IC50 [3]: 196 nM | IC50 [4, 6]: 728 nM

COc1ccc(-c2cc(Cn3cnc4c(N)ncnc43)c(N3CCC[C@@H](N)C3)cn2)cc1F [Example 1, (R)-9-((5-(3-aminopiperidin-1-yl)-2-(3-fluoro-4-methoxyphenyl)pyridin-4-yl)methyl)-9H-purin-6-amine]
IC50 [1]: 10 to 1000 nM | IC50 ([2]; KMS-11, read-out: H3K36me2 FRET in KMS11-Par): 3030 nM | IC50 [3]: 750 nM | IC50 ([4]; KMS-11, 72 h): 4090 nM

CO[C@H](C)[C@@]1(N)CCCN(c2cnc(-c3ccc(F)c(F)c3)cc2Cn2cnc3c(N)ncnc32)C1 [Example 97, 9-((5-((R)-3-amino-3-((R)-1-methoxyethyl)piperidin-1-yl)-2-(3,4-difluorophenyl)pyridin-4-yl)methyl)-9H-purin-6-amine]
IC50 [1]: 10 to 1000 nM | IC50 [2, 5]: 1500 nM | IC50 [3]: 1160 nM | IC50 [4, 6]: 1240 nM

Nc1ncnc2c1ncn2Cc1cc(-c2ccc(F)c(F)c2)ncc1N1CCC[C@](N)(COC2CCC2)C1 [Example 30, (R)-9-((5-(3-amino-3-(cyclobutoxymethyl)piperidin-1-yl)-2-(3,4-difluorophenyl)pyridin-4-yl)methyl)-9H-purin-6-amine]
IC50 [1]: 1 to 10 nM | IC50 [2, 5]: 569 nM | IC50 [3]: 659 nM | IC50 [4, 6]: 2030 nM
